Laboratory results: patent US11578055B2, “Triazacyclododecansulfonamide (“TCD”)-based protein secretion inhibitors” (KEZAR LIFE SCIENCES, priority 2018, dated 2023)
Like-named read-outs stand apart in the source and are kept apart here.

Tests used:
[1] = system: PD1 signal sequence plus 10 amino acids fused to Gaussia Luciferase (PD1-ss+10aa/Gaussia Luciferase); assay: Dox Induced PD1-ss-Gluc Assay; assay type: cell-based; conditions: 24 hr, read-out: 24 hr Dox Inducible PD1ssGluc 293FRT/TO: Mean IC50
Procedure, shortened: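 Stable Flp-In 293 T-REx line expressing the fusion under tetracycline-inducible control, plated the day before assay. Compound dilutions added with doxycycline and incubated at 37 °C, 5% CO2; unspecified stereocentres mean data refer to stereoisomer mixtures.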

[2] = system: full length TNFα (amino acids 1-233) fused to Gaussia Luciferase; assay: Dox Induced TNFα-FL-Gluc Assay; assay type: cell-based; conditions: 24 hr, read-out: 24 hr Dox Inducible TNFaFLGluc 293FRT/TO: Mean IC50
Procedure, shortened: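 Stable Flp-In 293 T-REx line expressing doxycycline-inducible full-length TNFα fused to Gaussia luciferase; cells plated the day before, then treated with compound dilutions in doxycycline-containing medium at 37° C, 5% CO2. Unspecified stereocentres mean stereoisomer mixtures were tested.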

[3] = system: full length IL-2 (amino acids 1-153) fused to Gaussia Luciferase; assay: Dox Induced IL2-FL-Gluc Assay; assay type: cell-based; conditions: 24 hr, read-out: 24 hr Dox Inducible IL2FLGluc 293FRT/TO: Mean IC50
Procedure, shortened: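 Flp-In 293 T-REx stable line expressing full-length IL-2 (aa 1-153) with C-terminal Gaussia luciferase fusion under doxycycline-inducible control. Cells plated the day before; compound dilutions added in DMSO/media containing doxycycline, incubated at 37° C, 5% CO2.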

[4] = system: multiple myeloma cell line NCl-H929; assay: H929 Cell Viability Assay; assay type: cell-based, human
Procedure, shortened: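 NCI-H929 myeloma cells in RPMI 1640 with 10% FBS were treated with compound dilutions for 48 h at 37 °C, and viability was then read by CellTiter-Glo luminescence. Compounds drawn without stereochemistry were tested as stereoisomer mixtures.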

[5] = system: multiple myeloma cell line U266B1; assay: U266 Cell Viability Assay; assay type: cell-based, human; conditions: 48 hr
Procedure, shortened: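 U266B1 myeloma cells in RPMI 1640 with 10% FBS were treated with compound dilutions for 48 h at 37° C, 5% CO2. Viability was read as CellTiter-Glo luminescence. Data for structures drawn without stereochemistry refer to stereoisomer mixtures.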

[6] = In Vitro Microsome Stability Assay (human); assay type: in vitro ADME
Procedure, shortened: (§1)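 Test article, added from a 0.25 mM DMSO stock, was incubated with liver microsomes (20 mg/mL stock) in 0.1 M potassium phosphate at 37° C, with the reaction started by NADPH. Samples were quenched with acetonitrile containing internal standard at 0 and 30 min and analysed by LC-MS/MS. Values are % remaining at 30 min versus 0 min, using IS-normalised AUC ratios.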

[7] = In Vitro Microsome Stability Assay (mouse); assay type: in vitro ADME
Procedure, shortened: as §1

[8] = In Vitro Microsome Stability Assay (rat); assay type: in vitro ADME
Procedure, shortened: as §1

[9] = In Vitro Microsome Stability Assay (monkey); assay type: in vitro ADME
Procedure, shortened: as §1

[10] = Homo sapiens, NCI-H929, 48 h, H929, Celltiter-Glo
[11] = Homo sapiens, U-266, U266, Celltiter-Glo
[12] = human liver microsomes, 30 min w/ NADPH
[13] = mouse liver microsomes, 30 min w/ NADPH
[14] = rat liver microsomes, 30 min w/ NADPH
[15] = monkey liver microsomes, 30 min w/ NADPH

| Compound | IC50 ([1]; Dox inducible, 293FRT/TO cells) [µM] | IC50 ([2]; Dox inducible, 293FRT/TO cells) [µM] | IC50 ([3]; Dox inducible, 293FRT/TO cells) [µM] | EC50 [4, 10] [µM] | EC50 [5, 11] [µM] | Liver Microsome Stability-% Left after 30 min w/ NADPH (%) Human [6, 12] [%] | Liver Microsome Stability-% Left after 30 min w/ NADPH (%) Mouse [7, 13] [%] | Liver Microsome Stability-% Left after 30 min w/ NADPH (%) Rat [8, 14] [%] | Liver Microsome Stability-% Left after 30 min w/ NADPH (%) Monkey [9, 15] [%] | IC50 ([1]; 293FRT/TO) [µM] | IC50 ([2]; 293FRT/TO) [µM] | IC50 ([3]; 293FRT/TO) [µM] | EC50 ([4]; Homo sapiens, NCI-H929, 48 h, H929, read-out: 48 hr H929 Viability Celltiter-Glo: Mean EC50) [µM] | EC50 ([5]; Homo sapiens, U-266, U266, read-out: 48 hr U266 Viability Celltiter-Glo: Mean EC50) [µM] | Liver Microsome Stability-% Left after 30 min w/ NADPH (%) Human ([6]; human, 30 min, NADPH) [%] | Liver Microsome Stability-% Left after 30 min w/ NADPH (%) Mouse ([7]; mouse, 30 min, NADPH) [%] | Liver Microsome Stability-% Left after 30 min w/ NADPH (%) Rat ([8]; rat, 30 min, NADPH) [%] | Liver Microsome Stability-% Left after 30 min w/ NADPH (%) Monkey ([9]; monkey, 30 min, NADPH) [%] | EC50 ([4]; 48 hr, H929, Celltiter-Glo) [µM] | EC50 ([5]; U266, Celltiter-Glo) [µM] |
| --- | --- | --- | --- | --- | --- | --- | --- | --- | --- | --- | --- | --- | --- | --- | --- | --- | --- | --- | --- | --- |
| C[C@H]1CN(CC2CCCCC2)C[C@H](C)CN(S(=O)(=O)N2CCc3cc(Cl)ccc3C2)C[C@@H](C)CN(S(=O)(=O)c2ccc(N(C)C)cc2)C1 [A160, 4-{[(3S,7S,11S)-5-[(6-chloro-1,2,3,4-tetrahydroisoquinolin-2-yl]sulfonyl]-9-(cyclohexylmethyl)-3,7,11-trimethyl-1,5,9-triazacyclododecan-1-yl]sulfonyl}-N,N-dimethylaniline] | 0.153 | 10.7 | 0.453 | > 25 | > 25 | 71.8 | 61.3 | 51.1 | 46.1 | – | – | – | – | – | – | – | – | – | – | – |
| C[C@H]1CCN(S(=O)(=O)N2CCc3cc(Cl)ccc3C2)CCCN(CC2CCCCC2)CCCN1S(=O)(=O)c1ccc(N(C)C)cc1 [A150, 4-{[(2 S)-5-[(6-chloro-1,2,3,4-tetrahydroisoquinolin-2-yl)sulfonyl]-9-(cyclohexylmethyl)-2-methyl-1,5,9-triazacyclododecan-1-yl]sulfonyl}-N,N-dimethylaniline] | 0.0303 | 0.468 | 0.0413 | 2 | > 25 | 4.6 | 1.38 | 2.02 | 2.2 | – | – | – | – | – | – | – | – | – | – | – |
| C[C@H]1CN(S(=O)(=O)c2ccc(N(C)C)cc2)CCCN(CCC2CCCCC2)CCCN(S(=O)(=O)N2CCc3cc(Cl)ccc3C2)C1 [A134, 4-{[(3S)-5-[(6-chloro-1,2,3,4-tetrahydroisoquinolin-2-yl)sulfonyl]-9-(2-cyclohexylethyl)-3-methyl-1,5,9-triazacyclododecan-1-yl]sulfonyl}-N,N-dimethylaniline] | 0.011 | 0.309 | 0.0273 | 0.541 | > 25 | 31.9 | 27.9 | 41.3 | 9.76 | – | – | – | – | – | – | – | – | – | – | – |
| CC1c2ccccc2CCN1S(=O)(=O)N1CCCN(CC2CCCCC2)CCCN(S(=O)(=O)c2ccc(N(C)C)cc2)C[C@H](C)C1 (stereo partly drawn) [A170, 4-{[(3S)-9-(cyclohexylmethyl)-3-methyl-5-[(1-methyl-1,2,3,4-tetrahydroisoquinolin-2-yl]sulfonyl]-1,5,9-triazacyclododecan-1-yl]sulfonyl}-N,N-dimethylaniline] | 0.0561 | 0.798 | 0.134 | 1.78 | > 25 | 7.2 | 3.65 | 10.8 | 1.37 | – | – | – | – | – | – | – | – | – | – | – |
| C[C@H]1CN(S(=O)(=O)c2ccc(N(C)C)cc2)CCCN(CC2CCCCC2)CCCN(S(=O)(=O)N2CCN(c3ccccc3OC(F)(F)F)CC2)C1 [A173, 4-{[(3S)-9-(cyclohexylmethyl)-3-methyl-5-({4-[2-(trifluoromethoxy)phenyl]piperazin-1-yl}sulfonyl)-1,5,9-triazacyclododecan-1-yl]sulfonyl}-N,N-dimethylaniline] | 0.0788 | 5.64 | 0.248 | > 25 | > 25 | 56.1 | 49.2 | 53.8 | 55.9 | – | – | – | – | – | – | – | – | – | – | – |
| Cc1ccccc1N1CCN(S(=O)(=O)N2CCCN(CC3CCCCC3)CCCN(S(=O)(=O)c3ccc(N(C)C)cc3)C[C@H](C)C2)CC1 [A97, 4-{[(3S)-9-(cyclohexylmethyl)-3-methyl-5-{[4-(2-methylphenyl)piperazin-1-yl]sulfonyl}-1,5,9-triazacyclododecan-1-yl]sulfonyl}-N,N-dimethylaniline] | – | – | – | – | – | – | – | – | – | 0.0418 | 0.566 | 0.087 | 0.726 | > 25 | 71.1 | 77.7 | 71.4 | 66.1 | – | – |
| Cc1cc(F)ccc1N1CC2(C1)CN(S(=O)(=O)N1CCCN(CC3CCCCC3)CCCN(S(=O)(=O)c3ccc(N(C)C)cc3)C[C@H](C)C1)C2 [A161, 4-{[(3S)-9-(cyclohexylmethyl)-5-{[6-(4-fluoro-2-methylphenyl)-2,6-diazaspiro[3.3]heptan-2-yl]sulfonyl}-3-methyl-1,5,9-triazacyclododecan-1-yl]sulfonyl}-N,N-dimethylaniline] | 0.577 | > 25 | 0.726 | > 25 | > 25 | 20.2 | 26.5 | 27.3 | 16.7 | – | – | – | – | – | – | – | – | – | – | – |
| Cc1cc(F)ccc1N1CCN(S(=O)(=O)N2CCCN(CC3CCCCC3)CCCN(S(=O)(=O)c3ccc(N(C)C)cc3)C[C@H](C)C2)C(C)C1 (stereo in doubt) [A163, 4-{[(3S)-9-(cyclohexylmethyl)-5-{[(2 R)-4-(4-fluoro-2-methylphenyl)-2-methylpiperazin-1-yl]sulfonyl}-3-methyl-1,5,9-triazacyclododecan-1-yl]sulfonyl}-N,N-dimethylaniline] | 0.0556 | 1.93 | 0.0812 | – | – | 64.2 | 72.8 | 54.9 | 57.5 | – | – | – | – | – | – | – | – | – | 13.6 | > 25 |
| C[C@H]1CN(S(=O)(=O)c2ccc(N(C)C)cc2)CCCN(CC2CCCCC2)CCCN(S(=O)(=O)N2CCN(C(=O)c3ccccc3)CC2)C1 [A100, 4-{[(3S)-5-[(4-benzoylpiperazin-1-yl)sulfonyl]-9-(cyclohexylmethyl)-3-methyl-1,5,9-triazacyclododecan-1-yl]sulfonyl}-N,N-dimethylaniline] | 1.15 | > 25 | 1.56 | > 25 | > 25 | 0.22 | 0.1 | 2.18 | 0.04 | – | – | – | – | – | – | – | – | – | – | – |
| COc1ccccc1N1CCN(S(=O)(=O)N2CCCN(CC3CCCCC3)CCCN(S(=O)(=O)c3ccc(N(C)C)cc3)C[C@H](C)C2)CC1 [A154, 4-{[(3S)-9-(cyclohexylmethyl)-5-{[4-(2-methoxyphenyl)piperazin-1-yl]sulfonyl}-3-methyl-1,5,9-triazacyclododecan-1-yl]sulfonyl}-N,N-dimethylaniline] | 0.0149 | 0.504 | 0.0587 | 0.749 | > 25 | 7.33 | 17.5 | 12.3 | 10.2 | – | – | – | – | – | – | – | – | – | – | – |
